Data from patent US20060167056A1, “Polymorphs of {5-[3-(4,6-Difluoro-1H-benzoimidazol-2-yl)-1H-indazol-5-yl)-4-methyl-pyridin-3-ylmethyl}-ethyl-amine” (AGOURON PHARMACEUTICALS, INC., priority 2004, published 2006).
“Also recorded” adds a separate entry of the source.

Assays:
Type in all cases: physicochemical
[1] = Stability study at 40° C. at 75% relative humidity (X-ray powder diffraction and DSC, initial vs 6 weeks)
Text: (§1) The present invention provides several polymorphic crystalline forms of Compound 1. Each crystalline form of the compound can be characterized by one or more of the following: X-ray powder diffraction pattern (i.e., X-ray diffraction peaks at various diffraction angles (2θ)), melting point onset (and onset of dehydration for hydrated forms) as illustrated by endotherms of a differential scanning calorimetry (DSC) thermogram, Raman spectra, thermal gravimetric analysis (TGA), solid state ^13C and ^19F nuclear magnetic resonance (SSNMR) spectrum, aqueous solubility, light stability under International Conference on Harmonization (ICH) high intensity light conditions, and physical and chemical storage stability.
(§2) Polymorph Form A is a meta-stable solvate form of Compound 1. Form A is chemically stable at 40° C. at 75% relative humidty for at least 6 weeks. […] The 6 week DSC thermogram, FIG. 2G, indicates an endotherm onset at 257° C. at a scan rate of 10° C./min.
(§3) Polymorph Form B is physically and chemically stable at 40° C. at 75% relative humidity for at least six weeks.
FIG. 2A is an X-ray powder diffractogram of polymorph Form B of Compound 1. Form B was further characterized by Raman spectra, ^13C solid state NMR, ^19F solid state NMR, DSC profiling and TGA analysis.

[2] = DSC profiling, meta-stability of the polymorphic form; details: DSC thermogram
Text: Different polymorphic forms of Compound 1 were also distinguished using differential scanning calorimetry (DSC). DSC measures the difference in heat energy between a solid sample and an appropriate reference with an increase in temperature. DSC thermograms are characterized by endotherms (indicating energy uptake) and also by exotherms (indicating energy release), typically as the sample is heated. The DSC thermographs were obtained using a TA Instrument DSC Q-1000 instrument at a scan rate of 10° C./min over a temperature range of 25-300° C. Samples were weighed into aluminum crucibles that were sealed and punctured with a single hole. The extrapolated onset of melting temperature and, where applicable, the onset of dehydration/desolvation temperature, were also calculated. […] For any given example, the observed endotherms may also differ from instrument to instrument; however, it will generally be within the ranges defined herein provided the instruments are calibrated similarly.
as §2
FIG. 3A is an X-ray powder diffractogram of polymorph Form C of Compound 1. […]

Aqueous solubility = assay: Aqueous solubility
Text: as §1, §3

chemically stable, duration [1] | physical stability, initial X-Ray powder diffraction data vs 6 week stability X-ray data ([1]; 6 weeks, XRPD) | stability class of the polymorphic form [2] | solubility (Aqueous solubility; aqueous, aqueous buffer, pH=4, read-out: initial aqueous solubility) [mg/mL] | behaviour of the aqueous solution after time (Aqueous solubility; pH=4, after time) | SMILES | polymorph conversion, initial DSC thermogram vs 6 week DSC thermogram ([1]; 6 weeks, DSC scan rate 10° C./min)
at least 6 weeks | appears to be physically stable | meta-stable | – | – | CCNCc1cncc(-c2ccc3[nH]nc(-c4nc5c(F)cc(F)cc5[nH]4)c3c2)c1C [Form A, {5-[3-(4,6-Difluoro-1H-benzoimidazol-2-yl)-1H-indazol-5-yl]-4-methyl-pyridin-3-ylmethyl}-ethyl-amine] | small conversion of Form A to Form B; also recorded: a small amount of Form A had been converted to Form B
at least six | – | – | > 20 | the solution has been seen to gel | CCNCc1cncc(-c2ccc3[nH]nc(-c4nc5c(F)cc(F)cc5[nH]4)c3c2)c1C [Form B, {5-[3-(4,6-Difluoro-1H-benzoimidazol-2-yl)-1H-indazol-5-yl]-4-methyl-pyridin-3-ylmethyl}-ethyl-amine] | –
– | – | meta-stable | – | – | CCNCc1cncc(-c2ccc3[nH]nc(-c4nc5c(F)cc(F)cc5[nH]4)c3c2)c1C [Form C, {5-[3-(4,6-Difluoro-1H-benzoimidazol-2-yl)-1H-indazol-5-yl]-4-methyl-pyridin-3-ylmethyl}-ethyl-amine] | –
